Data on eleven compounds can be found in patent publication US8642585B2, “Indanyloxydihydrobenzofuranylacetic acids” (Boehringer Ingelheim International GmbH, priority 2012, dated 2014).

For the assay, the target named is human GPR40 receptor (Homo sapiens, UniProt O14842). Put plainly: Assay II: IP1 accumulation (IPOne HTRF) in 1321N1 cells stably expressing human GPR40. Format: cell-based. To be noted: 1321N1 cells expressing human GPR40, stimulation 1 h at 37° C., 5% CO2, LiCl 50 mM. Here is the method:
IP1 accumulation measurements using the IPOne assay system—1321N1 cells stably expressing human GPR40 receptor (Euroscreen, Belgium) are seeded 24 h before the assay in white 384-well plates in culture medium containing 10% FCS, 1% Na-Pyruvate and 400 μg/mL G418. IP1 is assayed according to the manufacturers description (Cisbio Bioassays, France). In brief, the assay is started by substitution of the culture medium by stimulation buffer (Hepes 10 mM, CaCl2 1 mM, MgCl2 0.5 mM, KCl 4.2 mM, NaCl 146 mM, glucose 5.5 mM and LiCl 50 mM, pH 7.4). Cells are stimulated for 1 h at 37° C., 5% CO2 by addition of the compounds that are diluted in stimulation buffer containing LiCl. Assays are stopped by adding HTRF-conjugates (IP1-d2 and Anti-IP1 cryptate Tb) and lysis buffer, provided by the manufacturer. After an incubation time of 1 h at room temperature plates are measured using an EnVision™, Perkin Elmer. The obtained fluorescence ratios at 665/615 nM are then used to calculate the pEC50 values using Assay Explorer 3.3 Software (Accelrys, Inc.) by interpolation using an IP1 reference curve and subsequent sigmoidal curve fitting allowing for a variable hill slope.
On the technique in general: In TR-FRET formats the signal depends on donor and acceptor labels being close together.

Chain of human GPR40 receptor (O14842 whole entry): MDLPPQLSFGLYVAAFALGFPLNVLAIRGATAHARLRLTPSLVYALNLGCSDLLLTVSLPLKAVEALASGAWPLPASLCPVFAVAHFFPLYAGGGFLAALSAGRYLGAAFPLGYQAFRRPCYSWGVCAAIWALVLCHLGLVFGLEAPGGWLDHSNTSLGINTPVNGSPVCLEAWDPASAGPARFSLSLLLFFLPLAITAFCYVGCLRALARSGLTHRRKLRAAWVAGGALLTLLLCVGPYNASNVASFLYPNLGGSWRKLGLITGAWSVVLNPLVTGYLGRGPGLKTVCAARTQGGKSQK

In the case of `Cc1cccnc1-c1cc(C)c(-c2ccc(F)c3c2CC[C@H]3Oc2ccc3c(c2)OC[C@H]3CC(=O)O)c(C)c1` [Example 138, {(S)-6-[(R)-4-(2,6-Dimethyl-4-(3-methyl-pyridin-2-yl)-phenyl)-7-fluoro-indan-1-yloxy]-2,3-dihydro-benzofuran-3-yl}-acetic acid], the EC50 came to 9 nM. As for `Cc1ccnc(-c2cc(C)c(-c3ccc(F)c4c3CC[C@H]4Oc3ccc4c(c3)OC[C@H]4CC(=O)O)c(C)c2)c1` [Example 140, {(S)-6-[(R)-4-(2,6-Dimethyl-4-(4-methyl-pyridin-2-yl)-phenyl)-7-fluoro-indan-1-yloxy]-2,3-dihydro-benzofuran-3-yl}-acetic acid], the EC50 is 2 nM. In the case of `Cc1cc(-c2cnccn2)cc(C)c1-c1ccc(F)c2c1CC[C@H]2Oc1ccc2c(c1)OC[C@H]2CC(=O)O` [Example 122, {(S)-6-[(R)-4-(2,6-Dimethyl-4-pyrazin-2-yl-phenyl)-7-fluoro-indan-1-yloxy]-2,3-dihydro-benzofuran-3-yl}-acetic acid] it was 2 nM. Compound `Cc1cc(OCCCCS(C)(=O)=O)cc(C)c1-c1ccc(F)c2c1CC[C@H]2Oc1ccc2c(c1)OC[C@H]2CC(=O)O` [Example 43, ((S)-6-{(R)-7-Fluoro-4-[4-(4-methanesulfonyl-butoxy)-2,6-dimethyl-phenyl]-indan-1-yloxy}-2,3-dihydro-benzofuran-3-yl)-acetic acid] registered an EC50 of 22 nM.

`Cc1cc(OCCN2CCCS2(=O)=O)cc(C)c1-c1ccc(F)c2c1CC[C@H]2Oc1ccc2c(c1)OC[C@H]2CC(=O)O` [Example 40] registered an EC50 of 13 nM. Consider `CC(=O)NCCOc1cc(C)c(-c2ccc(F)c3c2CC[C@H]3Oc2ccc3c(c2)OC[C@H]3CC(=O)O)c(C)c1` [Example 73, 2-((S)-6-((R)-4-(4-(2-Acetamidoethoxy)-2,6-dimethylphenyl)-7-fluoro-2,3-dihydro-1H-inden-1-yloxy)-2,3-dihydrobenzofuran-3-yl)acetic acid], for which the EC50 was 13 nM.

The compound `Cc1cc(OC(C)(C)CO)cc(C)c1-c1ccc(F)c2c1CC[C@H]2Oc1ccc2c(c1)OC[C@H]2CC(=O)O` [Example 55, ((S)-6-{(R)-7-Fluoro-4-[4-(2-hydroxy-1,1-dimethyl-ethoxy)-2,6-dimethyl-phenyl]-indan-1-yloxy}-2,3-dihydro-benzofuran-3-yl)-acetic acid] came in with an EC50 of 25 nM. In the case of `Cc1cc(-c2cnn(C)c(=O)c2)cc(C)c1-c1ccc(F)c2c1CC[C@H]2Oc1ccc2c(c1)OC[C@H]2CC(=O)O` [Example 92, 2-((S)-6-((R)-4-(2,6-Dimethyl-4-(1-methyl-6-oxo-1,6-dihydropyridazin-4-yl)phenyl)-7-fluoro-2,3-dihydro-1H-inden-1-yloxy)-2,3-dihydrobenzofuran-3-yl)acetic acid] it was 5 nM; in that of `Cc1cc(OCC2(O)CC2)cc(C)c1-c1ccc(F)c2c1CC[C@H]2Oc1ccc2c(c1)OC[C@H]2CC(=O)O` [Example 75, 2-((S)-6-((R)-7-Fluoro-4-(4-((1-hydroxycyclopropyl)methoxy)-2,6-dimethylphenyl)-2,3-dihydro-1H-inden-1-yloxy)-2,3-dihydrobenzofuran-3-yl)acetic acid], 17 nM.

On to `Cc1cnc(-c2cc(C)c(-c3ccc(F)c4c3CC[C@H]4Oc3ccc4c(c3)OC[C@H]4CC(=O)O)c(C)c2)cn1` [Example 114, {(S)-6-[(R)-4-(2,6-Dimethyl-4-(5-methyl-pyrazin-2-yl)-phenyl)-7-fluoro-indan-1-yloxy]-2,3-dihydro-benzofuran-3-yl}-acetic acid], for which the EC50 worked out at 2 nM.

With `Cc1cc(-c2cn(C)cn2)cc(C)c1-c1ccc(F)c2c1CC[C@H]2Oc1ccc2c(c1)OC[C@H]2CC(=O)O` [Example 133, {(S)-6-[(R)-4-(2,6-Dimethyl-4-(1-methyl-imidazol-4-yl)-phenyl)-7-fluoro-indan-1-yloxy]-2,3-dihydro-benzofuran-3-yl}-acetic acid], the half-maximal effective concentration (EC50) was determined as 2 nM.

One may read the EC50 as the concentration giving half of the maximal effect. Higher therefore signals weaker potency.
